Where two headings read alike, the source gives them in different places.
What was measured:
[1] = Plasma protein binding (rapid equilibrium dialysis), rat; format: in vitro ADME
Method: (§3) After incubation for 20 min, a portion of the whole blood was centrifuged at 2500× g for 10 min at 4 °C to separate plasma; another portion of the whole blood was subjected to three cycles of freeze–thawing and ultrasonicated for 10 min to disrupt cells. Equal volumes of plasma and whole blood samples were added to the whole blood and plasma specimens, respectively, followed by protein precipitation with acetonitrile containing an internal standard (IS). […] The RED inserts were placed in the matching incubation plate: 200 µL of drug-containing matrix were added to the sample chamber, and 400 µL of PBS buffer (pH: 7.4) were added to the buffer chamber. After incubation in a constant-temperature shaking incubator for 6 h (37 °C), samples from the sample chamber and buffer chamber were diluted 1:1 with PBS or matrix, respectively, and proteins were precipitated with acetonitrile containing IS.

[2] = Plasma protein binding (rapid equilibrium dialysis), human; format: in vitro ADME; settings: pH 7.4, human
Method: as §3

[3] = Pharmacokinetics of MT and CBD in rats after pre-administration of ABT; settings: p.o. MT + CBD (5 + 20) mg/kg
Method: Twelve SD rats were randomly divided into two groups. Both groups were first given an intragastric administration of 1-aminobenzotriazole (ABT) at a dose of 200 mg/kg. […] The administration volume for all groups was 5 mL/kg. […] Approximately 50 μL of venous blood were collected into heparin sodium anticoagulant tubes and placed on ice. The sample processing and storage methods were the same as described previously.
Subsequently, the resultant mixture was vortexed for 1 minute and centrifuged at 4 °C for 10 min at 18,800× g. […] The lowest limit of quantification (LLOQ) was established at 2 ng/mL.
Kromasil 100-5-C8 (2.1 × 50 mm) was selected for the separation of samples. The mobile phase consisted of solvent A (water with 0.1% formic acid and 5 mM ammonium acetate) and solvent B (methanol with 0.1% formic acid). […] The column temperature was set at 40 °C. The two eluents were 0.1% formic acid and 5 mM ammonium acetate in water (A) and 0.1% formic acid in methanol (B). […] The main mass spectrometry detection parameters were: dry gas 10 L/min, heated gas 10 L/min, collision gas 270 kPa, ion source temperature 300 °C, desolvation temperature 250 °C, and heating module temperature 400 °C.
Pharmacokinetic parameters: GraphPad Prism 10.1 software was utilized to draw the curves. Noncompartmental analysis was selected to calculate the major PK parameters, including clearance (CL), volume (V), half-life (t1/2), peak concentration (Cmax), and area under the curve (AUC), using WinNonlin 8.1.

[4] = Liver microsome protein binding, human; format: in vitro ADME; settings: liver microsomes, pH 7.4
Method: as §3

[5] = Plasma protein binding (rapid equilibrium dialysis), dog; settings: beagle
Method: as §3

[6] = system: CYP1A2-mediated metabolism of MT; experiment: Static DDI model prediction of CBD's impact on MT exposure, beagle; set-up: species or system beagle dog; settings: CBD dose 30 mg
Source text: (§1) (AUC when co-administered with the inhibitor) to AUC[contr] (AUC without the inhibitor).

[7] = Pharmacokinetics of MT, 6-HMT and CBD in beagles after oral administration; settings: beagle
Method: Twelve male healthy adult beagles (weighing 10 ± 2 kg) were randomly divided into two groups. […] The drugs were dissolved in a physiological saline solution containing 5% castor oil, with an administration volume of 2 mL/kg. Blood samples were collected at the time points of pre-administration and 0.083, 0.25, 0.5, 0.75, 1, 1.5, 2, 4, 6, 8, and 12 h post-administration.
(§2) The column temperature was set at 40 °C.

[8] = system: CYP1A2-mediated metabolism of MT; experiment: Static DDI model prediction of CBD's impact on MT exposure, rat; settings: CBD dose 5 mg
Source text: as §1

[9] = Pharmacokinetics of MT, 6-HMT and CBD in SD rats (i.v. and oral); settings: rat; for half-life / AUC(0-t) / AUC(0-inf) / Cmax / MRT last / Tmax: Sprague-Dawley; for half-life: in vivo, t1/2, rats; for AUC(0-t) / AUC(0-inf) / Cmax / MRT last / Tmax: plasma; for MRT last: MRT(0–t)
Method: The drugs were dissolved in the same manner as described previously, with an administration volume of 5 mL/kg for all groups. Blood samples were collected at the time points of pre-administration and 0.033 (only for the intravenous administration group), 0.083, 0.25, 0.5, 0.75, 1, 1.5, 2, 4, 6, 8, and 12 h post-administration.
as §2

[10] = Plasma protein binding (rapid equilibrium dialysis), mouse; format: in vitro ADME; settings: pH 7.4
Method: as §3

[11] = Liver microsome protein binding, rat; format: in vitro ADME; settings: liver microsomes, pH 7.4
[12] = Brain tissue protein binding, rat; format: in vitro ADME; settings: pH 7.4
Method: as §3

PEPT1 = biological target: T1, PEPT1 (Homo sapiens, UniProt P46059); experiment: Uptake and uptake inhibition in MDCK/hPEPT1 cell model; format: cell-based; settings: MDCK
T1 construct: host or cells: MDCK
T1 sequence (P46059 1-708): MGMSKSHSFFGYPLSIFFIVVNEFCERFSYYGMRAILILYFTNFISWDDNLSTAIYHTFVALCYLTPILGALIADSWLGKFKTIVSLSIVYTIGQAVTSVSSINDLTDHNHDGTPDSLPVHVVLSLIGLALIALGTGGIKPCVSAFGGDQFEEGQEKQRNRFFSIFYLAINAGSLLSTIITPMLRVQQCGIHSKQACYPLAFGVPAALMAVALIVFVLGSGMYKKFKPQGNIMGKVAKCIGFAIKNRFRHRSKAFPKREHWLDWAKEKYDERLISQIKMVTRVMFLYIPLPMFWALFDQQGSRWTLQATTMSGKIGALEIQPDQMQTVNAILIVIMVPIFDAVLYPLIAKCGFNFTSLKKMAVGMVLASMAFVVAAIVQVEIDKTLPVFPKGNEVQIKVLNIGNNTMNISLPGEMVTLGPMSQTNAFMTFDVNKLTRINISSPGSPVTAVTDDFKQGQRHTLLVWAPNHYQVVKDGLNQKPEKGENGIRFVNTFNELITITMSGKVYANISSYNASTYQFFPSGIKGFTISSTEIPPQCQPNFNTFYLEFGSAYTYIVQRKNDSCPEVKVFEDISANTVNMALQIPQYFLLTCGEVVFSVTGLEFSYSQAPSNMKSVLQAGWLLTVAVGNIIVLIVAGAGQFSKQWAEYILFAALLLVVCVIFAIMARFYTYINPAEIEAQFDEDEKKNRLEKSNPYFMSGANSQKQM
Method: MDCK-PEPT1 cells were seeded into 24-well plates at a density of approximately 5 × 10^5 cells per well. When the cell confluency reached 60–70%, the culture medium was aspirated, and the cells were rinsed twice with HBSS pre-warmed to 37 °C. […] After incubation at 37 °C for 10 min, the buffer was aspirated, and ice-cold HBSS was immediately added to terminate the reaction, followed by rinsing three times. After drying the residual liquid, 200 μL of pure water were added to each well, and the cells were lysed by repeated freezing–thawing in liquid nitrogen three times. The cell lysates were collected, and the protein content was determined by the BCA method.
Cell uptake assessment: The concentration of the analyte in cells was corrected using the protein concentration of the cell lysate in each well.(4) Conclysate=Concdrug/ConcProtein
The uptake rate (U, pmol/mg/min) of the compound was calculated following Formula (5).(5) U=Clysate/P×t where Clysate is the amount of drug in the cell lysate (ng); P is cellular protein content (mg); t is incubation time (min).
The uptake ratio of the compound was calculated following Formula (6)(6) UR=U/ UMOCK where UMOCK is the uptake rate in MOCK-MDCK cells (pmol/mg/min).
The inhibition ratio was calculated following Formula (7)(7) IR=(1−Uwith inhibitor−Umock with inhibitor/Uwithout inhibitor−Umock without inhibitor)×100%

[13] = Liver microsome protein binding, dog; format: in vitro ADME; settings: beagle, liver microsomes, pH 7.4
Method: as §3

[14] = po, 20 mg/kg, rats, p.o., MT + CBD (20 + 20) mg/kg
[15] = po, 20 mg/kg, rats, p.o., Vehicle + CBD 20 mg/kg
[16] = male, po, 20 mg/kg, rats, p.o., MT + CBD (5 + 20) mg/kg

In the case of `C=C(C)[C@@H]1CCC(C)=C[C@H]1c1c(O)cc(CCCCC)cc1O` [CBD, Cannabidiol], the “fu, p (free fraction in plasma)” value [1] is reported as 0.25%, the fraction unbound at 6 h ([1]; plasma, pH 7.4) is reported as 0.0025 and the fraction unbound at 6 h ([2]; read-out: Plasma Protein Binding (converted)) is reported as 0.001. The fraction unbound at 6 h ([2]; read-out: fu, p (free fraction in plasma)) was 0.0001, the “AUC(0–t) of CBD in ABT-model rats relative to control group” value [3] was “approximately 1.68 fold” and the fraction unbound at 6 h [4] was 0.0073. The “fu, p (free fraction in plasma)” value [5] was 0.33%, the fraction unbound at 6 h ([5]; dog, plasma, pH 7.4) was 0.0033 and the “[I]h (estimated free concentration in liver)” value [6] was 1.37 nM. The “Ka (oral absorption rate)” value ([7]; calculated as 0.693/(tmax/5)) was 3.77, the Cmax ([7]; male, dog, plasma, oral) was 1310 nM and the “[I]h (estimated free concentration in liver)” value [8] was 0.74 nM. For the same compound, the half-life ([9]; po, 20 mg/kg, p.o., MT + CBD (20 + 20) mg/kg) was 2.67 h, the half-life ([9]; po, 20 mg/kg, p.o., Vehicle + CBD 20 mg/kg) was 3.55 h and the AUC(0-t) [9, 14] was 1390 ng·h/mL. For the same compound, the AUC(0-t) [9, 15] was 1570 ng·h/mL, the AUC(0-inf) [9, 14] was 1410 ng·h/mL and the AUC(0-inf) [9, 15] was 1590 ng·h/mL. It also gave a Cmax [9, 14] of 519 ng/mL, a Cmax [9, 15] of 704 ng/mL and an MRT last [9, 14] of 2.71 h. The MRT last [9, 15] was 3.11 h, the Tmax [9, 14] was 1.21 h and the Tmax [9, 15] was 0.92 h. It also gave a half-life ([9]; male, po, 20 mg/kg, p.o., MT + CBD (5 + 20) mg/kg) of 4.14 h, a Cmax ([9]; male, oral, parameter of CBD for static DDI model) of 1620 nM and an AUC(0-t) [9, 16] of 1590 ng·h/mL. For the same compound, the AUC(0-inf) [9, 16] was 1610 ng·h/mL, the Cmax [9, 16] was 510 ng/mL and the MRT last [9, 16] was 3.85 h. For the same compound, the Tmax [9, 16] was 1.5 h, the “Ka (oral absorption rate)” value ([9]; calculated as 0.693/(tmax/5)) was 2.31 and the fraction unbound at 6 h [10] was 0.0029. For the same compound, the fraction unbound at 6 h [11] was 0.0055, the fraction unbound at 6 h [12] was 0.0006 and the inhibition at 500 µM (PEPT1; 500 μM CBD, 100 μM MT, 4 °C, read-out: uptake inhibition rate of MT) was 2.7%. It also gave an inhibition at 500 µM (PEPT1; 500 μM CBD, 100 μM MT, 37 °C, read-out: uptake inhibition rate of MT) of 79.6%, an inhibition at 500 µM (PEPT1; pH 6.3, 500 μM CBD, 100 μM Gly, pH 6.3, 37 °C, read-out: inhibition rate on the uptake of Gly via PEPT1) of 46.7% and an inhibition at 500 µM (PEPT1; pH 6.3, 500 μM CBD, 100 μM UBEN, pH 6.3, 37 °C, read-out: inhibition rate on the uptake of UBEN via PEPT1) of 55.8%. It also gave a fraction unbound at 6 h [13] of 0.0018.

Source: paper PMC12845078 (Pharmaceuticals, 2025)
